Here are results for one substance from patent US20200368205A1, “METHODS AND COMBINATION THERAPY TO TREAT CANCER” (ARRAY BIOPHARMA INC., priority 2018, published 2020).

This test deals with melanoma cell lines. Briefly: MHC class I expression across the panel of eight melanoma cell lines. The class given is cell-based, human. The following applies: IFNg titration, 72-hour treatment, FIGS. 1 and 2 (A375, SKMEL-2). On the procedure:
The goal of this study was to measure the effects of binimetinib on cell surface MHC class I expression in various melanoma cell lines. In this study, eight melanoma cell lines were evaluated: MEL-JUSO (NRAS Q61L mutation), IPC-298 (NRAS Q61L mutation), A375 (BRAF V600E, homozygous mutation), HS936.T (NRAS Q61K mutation and BRAF N581K mutation), MM485 (NRAS Q61R mutation), SK-MEL-2 (NRAS Q61R mutation), MM415 (NRAS Q61L mutation), Malme-3M (BRAF V600E, heterozygous mutation). The cells lines were seeded into flat bottom 96-well tissue culture plates at a density of 5000 cells per well and allowed to adhere overnight. The following day cells were treated with vehicle control (0.25% DMSO) or varying dilutions of Binimetinib (0.7 nM-25000 nM) for 1 hour. Cells were then treated with vehicle control or 100 ng/ml IFNgamma (R&D systems) for 72 hours. Cells were washed, trypsinized, and stained with Alexa Fluor® 647 anti-human HLA-A,B,C antibody (W6/32, eBioscience) and analyzed on a BD FACSCanto II flow cytometer. An IFNg titration and time course were performed for assay optimization. Maximal induction of MHC class I expression was seen ˜100 ng/mL of IFNγ (see, e.g., FIGS. 1 and 2).

Regarding “IFNγ: IFNgamma (R&D systems) used to induce MHC class I expression”, the “IFNγ concentration giving maximal induction of MHC class I expression” value is listed as roughly 100 ng/mL.
